Reference: ChEMBL document CHEMBL3769378, “Protective effect and mechanism of action of saponins isolated from the seeds of gac (Momordica cochinchinensis Spreng.) against cisplatin-induced damage in LLC-PK1 kidney cells” (2016)
Calls of active or inactive are those of the source. The calls are words filed in the database; no cut-off is given here.

How the values were obtained:
[1] = test system: LLC-PK1; experiment: Inhibition of cisplatin-induced JNK phosphorylation in pig LLC-PK1 cells at 50 uM after 24 hrs by Western blotting method; type: cell-based; details: Sus scrofa
[2] = test system: LLC-PK1; experiment: Renoprotective activity in pig LLC-PK1 cells assessed as reduction in cisplatin-induced toxicity by measuring cell viability at 5 to 50 uM after 24 hrs by MTT assay relative to control; type: functional, Sus scrofa
[3] = test system: LLC-PK1; experiment: Inhibition of cisplatin-induced p38 phosphorylation in pig LLC-PK1 cells at 50 uM after 24 hrs by Western blotting method; type: cell-based; details: Sus scrofa
[4] = test system: LLC-PK1; experiment: Inhibition of cisplatin-induced apoptosis in pig LLC-PK1 cells at 50 uM after 24 hrs by annexin V-Alexa Fluor 488/propidium iodide staining-based flow cytometry; type: functional, cell-based; details: Sus scrofa
[5] = test system: LLC-PK1; experiment: Inhibition of cisplatin-induced caspase-3 activity in pig LLC-PK1 cells assessed as decrease in cleaved caspase 3 level at 50 uM after 24 hrs by Western blotting method; type: functional, cell-based; details: Sus scrofa
[6] = test system: LLC-PK1; experiment: Renoprotective activity in pig LLC-PK1 cells assessed as reduction in cisplatin-induced toxicity by measuring cell viability after 24 hrs by MTT assay; type: functional, cell-based; details: Sus scrofa

C[C@H]1O[C@H](O[C@H]2[C@H](O)[C@@H](C(=O)O)O[C@@H](O[C@@H]3CC[C@]4(C)[C@H](CC[C@@]5(C)[C@H]4CC=C4[C@H]6CC(C)(C)CC[C@@]6(C(=O)O)[C@@H](O)C[C@@]45C)[C@@]3(C)C=O)[C@@H]2O[C@H]2O[C@@H](CO)[C@@H](O)[C@@H](O)[C@@H]2O)[C@@H](O)[C@@H](O)[C@@H]1O
inhibition [1]: Active | Activity [2]: <=80% | inhibition [3]: Active | inhibition [4]: Active | inhibition [5]: Active | Activity [6]: Dose-dependent effect

C[C@@H]1O[C@@H](O[C@H]2[C@H](O)[C@@H](C(=O)O)O[C@@H](O[C@@H]3CC[C@]4(C)[C@H](CC[C@@]5(C)[C@H]4CC=C4[C@H]6CC(C)(C)CC[C@@]6(C(=O)O[C@@H]6O[C@H](C)[C@H](O)[C@H](O)[C@H]6O[C@H]6O[C@H](C)[C@@H](O[C@H]7OC[C@H](O)[C@@H](O)[C@@H]7O)[C@H](O[C@H]7O[C@@H](CO)[C@H](O)[C@@H](O[C@@H]8OC[C@@H](O)[C@H](O)[C@H]8O)[C@@H]7O)[C@@H]6O)CC[C@@]45C)[C@@]3(C)C=O)[C@@H]2O[C@@H]2O[C@H](CO)[C@H](O)[C@H](O)[C@H]2O)[C@H](O)[C@H](O)[C@H]1O
Activity ([2]; Sus scrofa): Active

C[C@H]1O[C@H](O[C@H]2[C@H](O)[C@@H](C(=O)O)O[C@@H](O[C@@H]3CC[C@]4(C)[C@H](CC[C@@]5(C)[C@H]4CC=C4[C@H]6CC(C)(C)CC[C@@]6(C(=O)O)CC[C@@]45C)[C@@]3(C)C=O)[C@@H]2O[C@H]2O[C@@H](CO)[C@@H](O)[C@@H](O)[C@@H]2O)[C@@H](O)[C@@H](O)[C@@H]1O
inhibition [1]: Active | Activity [2]: <=80% | inhibition [3]: Active | inhibition [4]: Active | inhibition [5]: Active | Activity [6]: Dose-dependent effect
